# Earlier results in US20170049851A1, “Method for Medical Treatment” (priority 2015, published 2017).
# Conditions: healthy as well as unhealthy persons; some adverse effects, largely gastrointestinal, with very high intakes
structure (smiles),measurement,value
"COC1=C(OC)C(=O)C(C/C=C(\C)CC/C=C(\C)CC/C=C(\C)CC/C=C(\C)CC/C=C(\C)CC/C=C(\C)CC/C=C(\C)CC/C=C(\C)CC/C=C(\C)CCC=C(C)C)=C(C)C1=O [CoQ10, ubiquinone]",daily dosage found to be tolerated,up to 3600 mg
